# Assay results taken from PubChem BioAssay (NCI).
#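 Briefly, cells in 96-well plates were exposed to five compound concentrations for 48 h, and endpoints were estimated by linear interpolation. Definition used: TGI = concentration required for complete inhibition of growth.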
# Key:
# Assay in all cases: growth of human tumour cells (NCI), 48 h
# [1] = test system: 786-0 renal
# [2] = test system: A498 renal
# [3] = test system: A549 NSCLC
# [4] = test system: ACHN renal
# [5] = test system: BT-549 breast
# [6] = test system: CAKI-1 renal
# [7] = test system: CCRF-CEM leukemia
# [8] = test system: COLO 205 colon
# [9] = test system: DU-145 prostate
# [10] = test system: EKVX NSCLC
# [11] = test system: HCC-2998 colon
# [12] = test system: HCT-116 colon
# [13] = test system: HCT-15 colon
# [14] = test system: HL-60(TB) leukemia
# [15] = test system: HOP-62 NSCLC
# [16] = test system: HOP-92 NSCLC
# [17] = test system: HS 578T breast
# [18] = test system: HT29 colon
# [19] = test system: IGROV1 ovarian
# [20] = test system: K-562 leukemia
# [21] = test system: KM12 colon
# [22] = test system: LOX IMVI melanoma
# [23] = test system: M14 melanoma
# [24] = test system: MALME-3M melanoma
# [25] = test system: MCF7 breast
# [26] = test system: MDA-MB-231 breast
# [27] = test system: MDA-MB-435
# [28] = test system: MDA-N
# [29] = test system: MOLT-4 leukemia
# [30] = test system: NCI-H226 lung
# [31] = test system: NCI-H23 lung
# [32] = test system: NCI-H460 lung
# [33] = test system: NCI-H522 lung
# [34] = test system: NCI/ADR-RES ovarian
# [35] = test system: OVCAR-3 ovarian
# [36] = test system: OVCAR-4 ovarian
# [37] = test system: OVCAR-5 ovarian
# [38] = test system: OVCAR-8 ovarian
# [39] = test system: PC-3 prostate
# [40] = test system: RPMI-8226 leukemia
# [41] = test system: RXF 393 renal
# [42] = test system: SF-268 CNS
# [43] = test system: SF-295 CNS
# [44] = test system: SF-539 CNS
# [45] = test system: SK-MEL-2 melanoma
# [46] = test system: SK-MEL-28 melanoma
# [47] = test system: SK-MEL-5 melanoma
# [48] = test system: SK-OV-3 ovarian
# [49] = test system: SN12C renal
# [50] = test system: SNB-19 CNS
# [51] = test system: SNB-75 CNS
# [52] = test system: SR leukemia
# [53] = test system: SW-620 colon
# [54] = test system: T-47D breast
# [55] = test system: TK-10 renal
# [56] = test system: U251 CNS
# [57] = test system: UACC-257 melanoma
# [58] = test system: UACC-62 melanoma
# [59] = test system: UO-31 renal
compound,measurement,setting,value
O=C1c2ccccc2C(=O)N1CCCC(=O)n1cc(F)c(=O)[nH]c1=O,TGI,[1],> 100 µM
same,TGI,[2],> 100 µM
same,TGI,[3],> 100 µM
same,TGI,[4],> 100 µM
same,TGI,[5],> 100 µM
same,TGI,[6],> 100 µM
same,TGI,[7],> 100 µM
same,TGI,[8],> 100 µM
same,TGI,[9],> 100 µM
same,TGI,[10],> 100 µM
same,TGI,[11],> 100 µM
same,TGI,[12],> 100 µM
same,TGI,[13],> 100 µM
same,TGI,[14],> 100 µM
same,TGI,[15],> 24.6 µM
same,TGI,[16],> 100 µM
same,TGI,[17],> 100 µM
same,TGI,[18],> 100 µM
same,TGI,[19],> 100 µM
same,TGI,[20],> 100 µM
same,TGI,[21],> 100 µM
same,TGI,[22],> 100 µM
same,TGI,[23],> 100 µM
same,TGI,[24],> 100 µM
same,TGI,[25],> 100 µM
same,TGI,[26],> 100 µM
same,TGI,[27],> 100 µM
same,TGI,[28],> 100 µM
same,TGI,[29],> 100 µM
same,TGI,[30],> 100 µM
same,TGI,[31],> 100 µM
same,TGI,[32],> 100 µM
same,TGI,[33],> 100 µM
same,TGI,[34],> 100 µM
same,TGI,[35],> 79 µM
same,TGI,[36],> 100 µM
same,TGI,[37],> 100 µM
same,TGI,[38],> 100 µM
same,TGI,[39],> 100 µM
same,TGI,[40],> 77.5 µM
same,TGI,[41],> 100 µM
same,TGI,[42],> 100 µM
same,TGI,[43],> 100 µM
same,TGI,[44],> 100 µM
same,TGI,[45],> 100 µM
same,TGI,[46],> 100 µM
same,TGI,[47],> 100 µM
same,TGI,[48],> 100 µM
same,TGI,[49],> 100 µM
same,TGI,[50],> 100 µM
same,TGI,[51],> 100 µM
same,TGI,[52],> 100 µM
same,TGI,[53],> 100 µM
same,TGI,[54],> 100 µM
same,TGI,[55],> 100 µM
same,TGI,[56],> 100 µM
same,TGI,[57],> 100 µM
same,TGI,[58],> 100 µM
same,TGI,[59],> 100 µM
N#CC1=C(N)OC2=C(CCCc3ccccc32)C1c1ccc([N+](=O)[O-])cc1 (stereo not drawn),TGI,[1],42.6 µM
same,TGI,[2],27.1 µM
same,TGI,[3],74.6 µM
same,TGI,[4],39.1 µM
same,TGI,[5],23.9 µM
same,TGI,[6],> 100 µM
same,TGI,[7],23.2 µM
same,TGI,[8],31.7 µM
same,TGI,[9],21.8 µM
same,TGI,[10],43 µM
same,TGI,[11],26.8 µM
same,TGI,[12],26.1 µM
same,TGI,[13],30.7 µM
same,TGI,[14],28.2 µM
same,TGI,[15],35.9 µM
same,TGI,[16],57.9 µM
same,TGI,[17],> 100 µM
same,TGI,[18],28.2 µM
same,TGI,[19],54 µM
same,TGI,[20],11.5 µM
same,TGI,[21],32.5 µM
same,TGI,[22],41.1 µM
same,TGI,[23],28 µM
same,TGI,[24],29.9 µM
same,TGI,[25],36.4 µM
same,TGI,[26],> 100 µM
same,TGI,[27],39.8 µM
same,TGI,[28],38.2 µM
same,TGI,[29],1.64 µM
same,TGI,[30],52.5 µM
same,TGI,[31],34.6 µM
same,TGI,[32],47.7 µM
same,TGI,[33],24.2 µM
same,TGI,[34],31.6 µM
same,TGI,[35],26.7 µM
same,TGI,[36],75.4 µM
same,TGI,[37],50.2 µM
same,TGI,[38],39 µM
same,TGI,[39],38.8 µM
same,TGI,[40],13.1 µM
same,TGI,[41],27.6 µM
same,TGI,[42],32.7 µM
same,TGI,[43],36.1 µM
same,TGI,[44],35.2 µM
same,TGI,[45],40.8 µM
same,TGI,[46],35.2 µM
same,TGI,[47],28.3 µM
same,TGI,[48],92.1 µM
same,TGI,[49],29 µM
same,TGI,[50],45.7 µM
same,TGI,[51],> 100 µM
same,TGI,[52],37.4 µM
same,TGI,[53],35.5 µM
same,TGI,[54],26.1 µM
same,TGI,[55],84.9 µM
same,TGI,[56],29.8 µM
same,TGI,[57],32.4 µM
same,TGI,[58],24.5 µM
same,TGI,[59],24 µM
